The source of these data is ChEMBL document CHEMBL1201862, “PubChem BioAssay data set” (2004).

Structures are written as SMILES. Calls of active or inactive are those of the source.

The target in experiment [1] is Glyceraldehyde-3-phosphate dehydrogenase (Homo sapiens, UniProt P04406).
In experiment [2] the target is T1, Bcl-2-related protein A1 (Mus musculus, UniProt Q07440).
T1 sequence (Q07440 whole entry): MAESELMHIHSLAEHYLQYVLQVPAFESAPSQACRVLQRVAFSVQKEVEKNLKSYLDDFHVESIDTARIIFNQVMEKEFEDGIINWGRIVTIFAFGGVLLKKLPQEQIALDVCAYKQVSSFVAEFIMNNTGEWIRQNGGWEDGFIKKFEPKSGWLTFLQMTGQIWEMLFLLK
Briefly: Bfl-1 inhibitors blocking BH3 peptide binding, confirmation, biochemical, TR-FRET, mouse Bfl-1 (AID 621).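 Further: TR-FRET binding of GST-Bfl-1 to FITC-labelled Bid peptide via terbium antibody.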 A general note: In TR-FRET formats the signal depends on donor and acceptor labels being close together.

For experiment [3], the target named is T1, Bcl-2-related protein A1. Briefly: Bfl-1 binding inhibitors, SAR follow-up, biochemical, fluorescence polarization (AID 1070). A general note: In fluorescence polarisation assays a small probe gives low polarisation when free and higher when bound to something large.
Experiment [4] addresses T2, Mannose-6-phosphate isomerase (Homo sapiens, UniProt P34949).
T2 sequence (P34949 whole entry): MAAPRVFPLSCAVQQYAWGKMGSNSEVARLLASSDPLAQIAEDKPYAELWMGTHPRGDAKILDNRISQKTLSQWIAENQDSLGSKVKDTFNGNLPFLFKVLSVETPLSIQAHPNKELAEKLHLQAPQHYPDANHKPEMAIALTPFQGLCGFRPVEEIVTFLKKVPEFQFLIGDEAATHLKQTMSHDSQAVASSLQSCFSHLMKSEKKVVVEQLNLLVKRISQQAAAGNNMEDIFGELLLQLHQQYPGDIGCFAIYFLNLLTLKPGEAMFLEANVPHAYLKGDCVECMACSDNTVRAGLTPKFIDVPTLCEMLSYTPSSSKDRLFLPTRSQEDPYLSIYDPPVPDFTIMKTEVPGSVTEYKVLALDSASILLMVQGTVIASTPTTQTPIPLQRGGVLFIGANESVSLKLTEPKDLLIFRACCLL
Briefly: human PMI inhibitors, high substrate, primary screen, biochemical, fluorescence intensity, high mannose 6-phosphate (AID 1220).

Experiment [5] is described as follows: cells. The format is functional, cell-based.
The target in experiment [6] is T3, Trace amine-associated receptor 1 (Homo sapiens, UniProt Q96RJ0).
T3 sequence (Q96RJ0 whole entry): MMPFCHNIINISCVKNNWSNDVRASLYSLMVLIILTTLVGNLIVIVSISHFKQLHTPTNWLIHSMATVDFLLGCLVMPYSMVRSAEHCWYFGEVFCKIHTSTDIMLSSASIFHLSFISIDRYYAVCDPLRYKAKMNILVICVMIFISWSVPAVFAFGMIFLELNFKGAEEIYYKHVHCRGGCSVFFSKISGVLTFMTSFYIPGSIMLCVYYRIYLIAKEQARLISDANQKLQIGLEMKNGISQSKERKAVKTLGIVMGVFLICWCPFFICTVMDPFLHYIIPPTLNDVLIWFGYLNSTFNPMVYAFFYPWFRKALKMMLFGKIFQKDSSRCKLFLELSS
Briefly: Fluorescence-based cell-based high throughput dose response assay to identify agonists of the human trace amine associated receptor 1 (TAAR1). It counts as functional.

Experiment [7] deals with T3, Trace amine-associated receptor 1. Briefly: Counterscreen for agonists of the human trace amine associated receptor 1 (hTAAR1): Fluorescence-based cell-based high throughput dose response assay to identify hTAAR1 agonist that also desensitize TAAR1 receptor response. It counts as functional. In general terms: Counterscreens check selectivity or assay interference.
Experiment [8] is described as follows: cells. The format is functional, cell-based. The source holds these as a separate data set.
Experiment [9] is described as follows: growth suppression of PTEN-null colon cells, dose response, cell-based, HCT116 PTEN knockout (AID 1047).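 Further: HCT116 colon tumor cells with PTEN knocked out; cells exposed to compound for 60 hours before readout; potency for loss of cell viability measured by luminescence.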 The format is functional.
Experiment [10] is described as follows: growth suppression of beta-catenin-knockout colon cells, dose response, cell-based, HCT116, human colon tumor (AID 1045).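 Further: HCT116 colon tumor cells with beta catenin knocked out; cells exposed to compound for 60 hours.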 It counts as functional.
Experiment [11] in a line: Luminescence-based cell-based high throughput dose response assay to identify activators of the DAF-12 from the parasite S. stercoralis (ssDAF-12). It counts as functional.
In experiment [12] the target is T4, Oxysterols receptor LXR-beta (Homo sapiens, UniProt P55055).
T4 sequence (P55055 whole entry): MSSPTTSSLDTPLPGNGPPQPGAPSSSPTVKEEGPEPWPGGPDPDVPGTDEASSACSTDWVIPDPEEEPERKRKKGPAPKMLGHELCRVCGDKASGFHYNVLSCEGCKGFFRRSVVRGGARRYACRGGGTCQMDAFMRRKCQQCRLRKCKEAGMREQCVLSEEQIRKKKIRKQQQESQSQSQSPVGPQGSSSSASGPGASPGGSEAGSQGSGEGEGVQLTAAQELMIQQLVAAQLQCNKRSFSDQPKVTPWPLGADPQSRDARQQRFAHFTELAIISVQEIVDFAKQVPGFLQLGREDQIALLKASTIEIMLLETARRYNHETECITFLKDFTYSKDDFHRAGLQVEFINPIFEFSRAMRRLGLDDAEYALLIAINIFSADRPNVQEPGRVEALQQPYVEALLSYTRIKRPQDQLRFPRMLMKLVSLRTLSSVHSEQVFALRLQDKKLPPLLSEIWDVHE
Description: LXR agonists, Gal4 luciferase reporter, dose response, counter-screen for ssDAF-12 agonist project, cell-based, luminescence, HEK293, S. stercoralis campaign (AID 720737). It counts as functional. The note with it: read-out: IC50 (the source's name).

Experiment [13] concerns the target T5, Protein Tat (Human immunodeficiency virus type 1 group M subtype B (isolate HXB2)(HIV-1), UniProt P04608).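 Further: tat binding to TAR RNA read out by fluorescence polarization.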
T5 sequence (P04608 whole entry): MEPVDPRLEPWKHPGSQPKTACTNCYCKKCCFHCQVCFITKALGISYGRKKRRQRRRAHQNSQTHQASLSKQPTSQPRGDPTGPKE
The format is functional.

Experiment [14] addresses Paired box protein Pax-8 (Homo sapiens, UniProt Q06710). Briefly: inhibitors of PAX8-driven TPO luciferase reporter, dose response, RMG-I cells, cherry-pick (AID 687027).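 Further: luciferase reporter driven by Pax8 target thyroperoxidase promoter measured by SteadyGlo luminescence.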 It counts as functional, cell-based.
Experiment [15] is described as follows: NIH:OVCAR-3 ovarian cancer cell cytotoxicity, dose response, PAX8 inhibitor project, plate reader, dry powder samples (AID 743044). It counts as functional, cell-based.
Experiment [16] can be described thus: cytotoxicity in OVCAR8 ovarian cancer cells, dose response, PAX8 project, cell-based, plate reader, dry powder samples (AID 743197). The settings on record: OVCAR-8. The format is functional.
Experiment [17] is described as follows: P. falciparum 3D7-ScDHODH growth inhibitors, dose response, SYBR Green, dry powder samples (AID 1159570).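 Further: parasite growth measured after 72 hours of compound exposure.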 It counts as functional, cell-based.
A short description of experiment [18]: P. falciparum Dd2 growth inhibitors, dose response, SYBR Green, cherry-picked samples (AID 1159567). It counts as functional, cell-based.
A short description of experiment [19]: P. falciparum Dd2 growth inhibitors, dose response, SYBR Green, dry powder samples (AID 1159566).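 Further: potency for growth inhibition with lower SYBR green DNA signal.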 It counts as functional, cell-based.
Experiment [20] can be described thus: P. falciparum ATP4 D1247Y mutant growth inhibitors, dose response, NITD609-resistant line, SYBR Green, dry powder (AID 1159571).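 Further: parasites synchronized at ring stage by sorbitol before testing.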 It counts as functional, cell-based.
The target of experiment [21] is T6, RNA-editing ligase 1, mitochondrial (Trypanosoma brucei brucei, UniProt P86926).
T6 sequence (P86926 whole entry): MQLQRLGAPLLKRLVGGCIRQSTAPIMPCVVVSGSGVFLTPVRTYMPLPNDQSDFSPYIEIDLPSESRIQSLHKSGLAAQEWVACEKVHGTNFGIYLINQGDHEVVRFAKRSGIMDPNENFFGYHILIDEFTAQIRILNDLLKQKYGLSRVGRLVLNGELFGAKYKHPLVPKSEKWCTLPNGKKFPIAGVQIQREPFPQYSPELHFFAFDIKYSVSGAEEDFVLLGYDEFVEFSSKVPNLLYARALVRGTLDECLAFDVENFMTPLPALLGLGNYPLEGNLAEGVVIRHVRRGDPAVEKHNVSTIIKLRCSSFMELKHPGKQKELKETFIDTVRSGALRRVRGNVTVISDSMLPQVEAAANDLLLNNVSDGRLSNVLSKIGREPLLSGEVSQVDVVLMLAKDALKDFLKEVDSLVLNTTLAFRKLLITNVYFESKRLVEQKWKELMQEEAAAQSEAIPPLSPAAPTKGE
Description: TbREL1 ligase inhibitors, dose response, biochemical, fluorescence, Trypanosoma brucei (AID 1117295). The format is functional.

Chain of Paired box protein Pax-8 (Q06710 whole entry): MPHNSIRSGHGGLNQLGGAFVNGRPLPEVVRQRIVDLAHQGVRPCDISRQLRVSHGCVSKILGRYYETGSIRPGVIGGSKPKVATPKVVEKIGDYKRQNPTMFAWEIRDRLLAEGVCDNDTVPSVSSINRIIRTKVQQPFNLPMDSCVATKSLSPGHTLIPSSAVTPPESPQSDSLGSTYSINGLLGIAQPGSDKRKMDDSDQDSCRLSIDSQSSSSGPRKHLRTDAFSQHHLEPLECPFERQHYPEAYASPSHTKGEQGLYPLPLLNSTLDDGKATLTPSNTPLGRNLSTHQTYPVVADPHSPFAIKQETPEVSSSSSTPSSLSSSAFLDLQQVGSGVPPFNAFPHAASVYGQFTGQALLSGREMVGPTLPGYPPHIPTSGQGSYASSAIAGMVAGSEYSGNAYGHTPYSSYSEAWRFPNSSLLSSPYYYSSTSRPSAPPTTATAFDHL
Chain of Glyceraldehyde-3-phosphate dehydrogenase (P04406 whole entry): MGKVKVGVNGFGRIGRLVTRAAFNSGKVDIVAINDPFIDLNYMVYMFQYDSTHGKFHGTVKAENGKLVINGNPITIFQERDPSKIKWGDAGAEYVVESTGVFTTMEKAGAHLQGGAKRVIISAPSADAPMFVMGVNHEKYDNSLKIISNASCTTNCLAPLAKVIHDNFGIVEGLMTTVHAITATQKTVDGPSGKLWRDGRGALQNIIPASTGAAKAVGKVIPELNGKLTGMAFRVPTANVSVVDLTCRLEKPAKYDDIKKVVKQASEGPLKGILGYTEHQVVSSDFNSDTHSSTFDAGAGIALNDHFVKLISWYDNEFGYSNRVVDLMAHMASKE

For the molecule `O=C1C(Cl)=C(N2CCN(c3ccccc3Cl)CC2)C(=O)N1c1ccc(Cl)c(Cl)c1`, the concentration for half-maximal inhibition (IC50) in [1], in experiment [2] and in experiment [3] was > 100 µM (not active) in each case.
Turning to `CC1CCCN(C(=S)SCC(=O)c2cc(Br)cc(Br)c2O)C1` (configuration not stated), the half-maximal inhibitory concentration (IC50) (in general, the midpoint of a concentration-inhibition curve) in experiment [4] was > 50 µM (not active); in experiment [5], > 29.9 µM (inactive); in experiment [7], 4.68 µM (active). For the same molecule, the results for the EC50 in [6] and in experiment [8] were 0.732 µM (active) and > 29.9 µM (inactive), respectively.
As to `Cc1ccc2nc(-c3ccc(NC(=O)COC(=O)c4ccc(Br)o4)cc3)sc2c1`, the results for the EC50 in [9], in [10] and in experiment [12] were 37.3 µM (active), 79.7 µM (active) and > 67.5 µM (inactive), respectively. In addition, the IC50 in experiment [11] was > 67.5 µM (inactive).
`O=P(O)(CN1CCCCCC1)CN1CCCCCC1`: in experiment [13], the half-maximal inhibitory concentration (IC50) is > 100 µM (active).
Turning to `C[C@@H]1CCCCO[C@@H](CN(C)Cc2ccc(C(F)(F)F)cc2)[C@H](C)CN([C@@H](C)CO)C(=O)c2cc(NC(=O)Nc3ccc(F)cc3)ccc2O1`, the AC50 – broadly, the concentration at which the activity in the assay is half-maximal – in experiment [14] is 3.37 µM (active); in experiment [15], 45.7 µM (active).
For the molecule `Cc1ccc(S(=O)(=O)Nc2ccc3c(c2)C(=O)N([C@H](C)CO)C[C@@H](C)[C@H](CN(C)Cc2ccc(Cl)c(Cl)c2)OCCCC[C@H](C)O3)cc1`, the values for the concentration at half-maximal activity (AC50) in [14], in experiment [15] and in experiment [16] were 6.2 µM (active), 25.4 µM (active) and 37.8 µM (active), respectively.
For `C[C@@H]1CN([C@H](C)CO)C(=O)c2cc(NC(=O)Nc3ccc(C(F)(F)F)cc3)ccc2O[C@H]1CN(C)C(=O)Nc1cccc2ccccc12`, the AC50 is 1.43 µM (active) in [17], 1.68 µM (active) in experiment [18], 1.99 µM (active) in [19] and 2 µM (active) in experiment [20].
As for `O=C(c1ccncc1)N1CC(=O)N2[C@H](C1)[C@@H](c1ccc(-c3cccnc3)cc1)[C@@H]2CO`, the AC50 in [17] was 0.188 µM (active); in experiment [18] it was < 0.3 µM (active); in [19], 0.112 µM (active); in experiment [20], 0.161 µM (active).
With `CN1CCC(N[C@@H](Cc2ccccc2)C(=O)NCC(c2ccccc2)c2ccccc2)(C(=O)NC2CCCCC2)CC1`, in experiment [21], the IC50 is > 96.6 µM (inactive).
